From patent publication US9765039B2, “Biaryl derivatives as bromodomain inhibitors” (Zenith Epigenetics Ltd., priority 2012, dated 2017)

Legend:
hMCP-1 mRNA = experiment: Inhibition of hMCP-1 mRNA transcription in human peripheral blood mononuclear cells; assay type: cell-based; design: key: Active: Compounds with an IC50 value less than 30 μM were deemed to be active.; Not Active: Compounds with an IC50 value less than 30 μM were deemed to be active; settings: 3 h
Procedure: In this example, hMCP-1 mRNA in human peripheral blood mononuclear cells was quantitated to measure the transcriptional inhibition of hMCP-1 when treated with a compound of the present disclosure.
Human Peripheral Blood Mononuclear Cells were plated (1.0×10^5 cells per well) in a 96-well plate in 45 μL RPMI-1640 containing 10% FBS and penicillin/streptomycin. The cells were treated with the test compound (45 μL at 2× concentration), and then the cells were incubated at 37° C. for 3 h before the cells were harvested. At time of harvest, cells were transferred to V-bottom plates and centrifuged at 800 rpm for 5 minutes. Spent media was removed and cell lysis solution (70 μL) was added the cells in each well and incubated for 5-10 min at room temperature, to allow for complete cell lysis and detachment. mRNA was then prepared using the “mRNA Catcher PLUS plate” (Invitrogen), according to the protocol supplied. After the last wash, as much wash buffer as possible was aspirated without allowing the wells to dry. […]
The eluted mRNA isolated was then used in a one-step quantitative real-time PCR reaction, using components of the Ultra Sense Kit together with Applied Biosystems primer-probe mixes. Real-time PCR data was analyzed, normalizing the Ct values for hMCP-1 to an internal control, prior to determining the fold induction of each unknown sample, relative to the control.

hIL-6 mRNA = experiment: Inhibition of hIL-6 mRNA transcription in LPS-stimulated U937 macrophages; assay type: cell-based, human; design: key: Active: Compounds with an IC50 value less than 30 μM are deemed to be active; settings: U937 differentiated into macrophages, 1 h pretreatment, lipopolysaccharide 3 h
Summary of the method: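 U937 cells differentiated 3 days with 60 ng/mL PMA, pretreated 1 h with compound, then stimulated with […] E. coli LPS for 3 h at 37° C. hIL-6 mRNA quantified by one-step real-time RT-PCR, Ct normalised to internal control and expressed as fold induction relative to control.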

MCP-1 Activity (IC50 < 30 μM) (hMCP-1 mRNA): Active
IL-6 activity (IC50 < 30 μM) (hIL-6 mRNA): Active
SMILES: COc1cc(OC)c2c(=O)[nH]c(-c3ccc(OCCNC(C)C)c(-c4ccc([S+](C)[O-])cc4)n3)nc2c1 (centres unmarked) [Example 41, 2-(5-(2-(Isopropylamino)ethoxy)-6-(4-(methylsulfinyl)phenyl)pyridin-2-yl)-5,7-dimethoxyquinazolin-4(3H)-one]
